From PubChem BioAssay AID330 (DTP/NCI, 2004)
Several values for one entry are separate records, joined by “and”; a condition that tells them apart may be missing. Equal values may be shown once. Toxic doses and inconclusive results are not listed.

Test system: P388 leukemia ip, CD2F1 mice, survival T/C
Experiment: NCI In Vivo Anticancer Drug Screen. Data for tumor model P388 Leukemia (intraperitoneal) in CD2F1 (CDF1) mice
Conditions: endpoint: median survival time, higher = longer survival
Procedure, shortened: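 Mice carrying the transplanted tumor received test compound or vehicle. Survival was recorded in each group, and the value is the treated-group measurement divided by that of the vehicle-treated control group.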

For `Nc1cc(C(F)(F)F)ccc1S`, the T/C (dose: 3.0 mg/kg/injection, schedule: Q01DX009 (ip), vehicle: DMSO) was 94 % of control, the T/C (dose: 6.0 mg/kg/injection, schedule: Q01DX009 (ip), vehicle: DMSO) was 103 % of control and the T/C (dose: 12.5 mg/kg/injection, schedule: Q01DX009 (ip), vehicle: DMSO) was 90 % of control.

`CCCCCCCCCCCCSCN(CC)CC` was tested, and the T/C (dose: 25.0 mg/kg/injection, schedule: Q01DX009 (ip), vehicle: saline) was 89 % of control, the T/C (dose: 50.0 mg/kg/injection, schedule: Q01DX009 (ip), vehicle: saline) was 99 % of control and 111 % of control and the T/C (dose: 100.0 mg/kg/injection, schedule: Q01DX009 (ip), vehicle: saline) was 101 % of control and 103 % of control.

In the case of `Cc1cc(=O)n2c(n1)sc1cc3ccccc3cc12`, the T/C (dose: 100.0 mg/kg/injection, schedule: Q04DX002 (ip), vehicle: Klucel (hydroxypropylcellulose) (HPC)) is reported as 98 % of control, the T/C (dose: 200.0 mg/kg/injection, schedule: Q04DX002 (ip), vehicle: Klucel (hydroxypropylcellulose) (HPC)) is reported as 100 % of control and the T/C (dose: 400.0 mg/kg/injection, schedule: Q04DX002 (ip), vehicle: Klucel (hydroxypropylcellulose) (HPC)) is reported as 99 % of control.

With `CN=C(NC)c1ccc(NC(=O)c2ccc(C(=O)Nc3ccc(C(=NC)NC)c(OC)c3)c(Cl)c2)cc1OC` the T/C (dose: 0.78 mg/kg/injection, schedule: Q01DX005 (ip), vehicle: saline with Tween-80) was 101 % of control, the T/C (dose: 1.56 mg/kg/injection, schedule: Q01DX005 (ip), vehicle: saline with Tween-80) was 104 % of control and the T/C (dose: 3.13 mg/kg/injection, schedule: Q01DX005 (ip), vehicle: saline with Tween-80) was 105 % of control.

For `CN=C(c1ccc(NC(=O)c2ccc(C(=O)Nc3ccc(C(=NC)N4CCOCC4)cc3)c(Cl)c2)cc1)N1CCOCC1`, the T/C (dose: 0.19 mg/kg/injection, schedule: Q01DX005 (ip), vehicle: saline) was 97 % of control, the T/C (dose: 0.39 mg/kg/injection, schedule: Q01DX005 (ip), vehicle: saline) was 100 % of control and the T/C (dose: 0.78 mg/kg/injection, schedule: Q01DX005 (ip), vehicle: saline) was 100 % of control. For the same molecule, the T/C (dose: 1.56 mg/kg/injection, schedule: Q01DX005 (ip), vehicle: saline) was 100 % of control and the T/C (dose: 6.25 mg/kg/injection, schedule: Q01DX005 (ip), vehicle: saline) was 107 % of control.

For `Cc1ncc(Br)c(C(=O)N=C(N)N)n1`, the T/C (dose: 50.0 mg/kg/injection, schedule: Q01DX005 (ip), vehicle: Klucel (hydroxypropylcellulose) (HPC)) was 95 % of control, the T/C (dose: 100.0 mg/kg/injection, schedule: Q01DX005 (ip), vehicle: Klucel (hydroxypropylcellulose) (HPC)) was 100 % of control and the T/C (dose: 200.0 mg/kg/injection, schedule: Q01DX005 (ip), vehicle: Klucel (hydroxypropylcellulose) (HPC)) was 94 % of control.

With `C/C(C(=O)c1ccccc1)=C1/NC(C)(C)CO1` the T/C (dose: 60.0 mg/kg/injection, schedule: Q01DX005 (ip), vehicle: saline with Tween-80) was 101 % of control, the T/C (dose: 120.0 mg/kg/injection, schedule: Q01DX005 (ip), vehicle: saline with Tween-80) was 103 % of control and the T/C (dose: 240.0 mg/kg/injection, schedule: Q01DX005 (ip), vehicle: saline with Tween-80) was 101 % of control.

With `O=C1N/C(=N/OCc2ccccc2)C(F)C(NOCc2ccccc2)N1` (configuration not stated) the T/C (dose: 50.0 mg/kg/injection, schedule: Q01DX009 (ip), vehicle: Klucel (hydroxypropylcellulose) (HPC)) was 96 % of control, the T/C (dose: 100.0 mg/kg/injection, schedule: Q01DX009 (ip), vehicle: Klucel (hydroxypropylcellulose) (HPC)) was 101 % of control and the T/C (dose: 200.0 mg/kg/injection, schedule: Q01DX009 (ip), vehicle: Klucel (hydroxypropylcellulose) (HPC)) was 97 % of control.

With `CC(C)C/C=C/CCCCCCCCCC(=O)NCC(=O)NC1C(C)OC(Nc2ncnc3nc[nH]c23)C(O)C1O` (configuration not stated) the T/C (dose: 0.5 mg/kg/injection, schedule: Q01DX009 (ip), vehicle: water) was 112 % of control and 123 % of control (2×), the T/C (dose: 1.0 mg/kg/injection, schedule: Q01DX009 (ip), vehicle: water) was 101 % of control and 103 % of control and 121 % of control and the T/C (dose: 2.0 mg/kg/injection, schedule: Q01DX009 (ip), vehicle: water) was 155 % of control. For the same molecule, the T/C (dose: 4.0 mg/kg/injection, schedule: Q01DX009 (ip), vehicle: water) was 123 % of control and 87 % of control and the T/C (dose: 8.0 mg/kg/injection, schedule: Q01DX009 (ip), vehicle: water) was 156 % of control and 178 % of control.

In the case of `O=[N+]([O-])c1ccc(NN=NCCF)cc1`, the T/C (dose: 0.44 mg/kg/injection, schedule: Q01DX005 (ip), vehicle: other) is reported as 102 % of control and 94 % of control, the T/C (dose: 0.88 mg/kg/injection, schedule: Q01DX005 (ip), vehicle: other) is reported as 102 % of control and 94 % of control and the T/C (dose: 1.75 mg/kg/injection, schedule: Q01DX005 (ip), vehicle: other) is reported as 105 % of control and 124 % of control and 94 % of control. The T/C (dose: 3.5 mg/kg/injection, schedule: Q01DX005 (ip), vehicle: other) was 100 % of control and 106 % of control and 94 % of control and the T/C (dose: 7.0 mg/kg/injection, schedule: Q01DX005 (ip), vehicle: other) was 109 % of control.

`O=C1C2C3C=CC(O3)C2C(=O)N1N=C1CCCCC1` (configuration not stated) was tested, and the T/C (dose: 50.0 mg/kg/injection, schedule: Q01DX005 (ip), vehicle: saline with Tween-80) was 99 % of control, the T/C (dose: 100.0 mg/kg/injection, schedule: Q01DX005 (ip), vehicle: saline with Tween-80) was 101 % of control and the T/C (dose: 200.0 mg/kg/injection, schedule: Q01DX005 (ip), vehicle: saline with Tween-80) was 101 % of control.

In the case of `Cc1cc(N)c2cc(NC(=O)CCCCCC(=O)Nc3ccc4nc(C)cc(N)c4c3)ccc2n1`, the T/C (dose: 6.25 mg/kg/injection, schedule: Q01DX009 (ip), vehicle: saline with Tween-80) is reported as 100 % of control, the T/C (dose: 12.5 mg/kg/injection, schedule: Q01DX009 (ip), vehicle: saline with Tween-80) is reported as 110 % of control and the T/C (dose: 25.0 mg/kg/injection, schedule: Q01DX009 (ip), vehicle: saline with Tween-80) is reported as 118 % of control.
